Experimental data as given in publication PMC13371181, “A paracrine-to-autocrine shunt of GREM1 fuels colorectal cancer metastasis via ACVR1C” (Molecular Cancer, 2026).
Entries after “also recorded” stand apart in the source; their conditions may differ. Peptide text beside a SMILES is read from it.

Experiments:
[1] = target: T1, GREM1 (Homo sapiens, UniProt O60565); experiment: MST binding of ACVR1C peptide to GREM1-His; details: GREM1 for ACVR1C peptide versus ACVR1C-ECD
T1 construct: His; purchased R&D 5190-GR
T1 sequence (O60565 25-184): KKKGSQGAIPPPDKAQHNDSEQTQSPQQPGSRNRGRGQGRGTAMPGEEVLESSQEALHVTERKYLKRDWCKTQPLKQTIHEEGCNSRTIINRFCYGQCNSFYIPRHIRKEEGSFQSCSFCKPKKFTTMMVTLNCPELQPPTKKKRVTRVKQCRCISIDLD
Protocol: MST was carried out on a Monolith NT.115 instrument (NanoTemper Technologies GmbH, MO-L011). To evaluate ACVR1C-ECD or ACVR1C peptide or ACVR1C-ECD-double mutant (E85A/T101A) binding to GREM1-His or ACTIVIN B-His, an increasing concentration of purified ACVR1C-ECD-Fc protein (0–27.5 µM) or ACVR1C peptide (0–2.3 µM) or ACVR1C-ECD-double mutant (0–27.5 µM) was incubated with 50 nM red-fluorescently labeled (NanoTemper Technologies GmbH, MO-L011) GREM1-His protein (R&D, 5190-GR) or ACTIVIN B-His protein (SinoBiological, 10814-H08H). Experiments were carried out in a PBS buffer pH 7.4 using premium capillaries (NanoTemper Technologies GmbH, MO-K025).

[2] = tested on: GREM1–ACVR1C; experiment: Pull-down assay, blocking of GREM1–ACVR1C-ECD binding; design: species or system human; details: GREM1-His and ACVR1C-ECD-Fc, Coomassie Brilliant Blue
Protocol: Protein pull-down assay was performed using purified recombinant human His-tagged GREM1 protein and recombinant human ACVR1C-ECD and Fc chimera protein. Protein was enriched by Pierce Protein A magnetic beads (MCE, HY-K0202) or Ni Sepharose 6 Fast Flow (GE, 17531801) following the manufacturer’s instructions. Pulled-down proteins were detected by Coomassie Brilliant Blue staining.

[3] = tested on: HCT116-luc cells; experiment: Spleen-to-liver metastasis model, HCT116-luc (pLV-GREM1) in NOG mice; format: in vivo, human cells in NOG mice; details: HCT116-luc (pLV-GREM1) injected in the spleen, ACVR1C peptide 10 mg/kg i.v. (tail vein) every other day from 48 h after cell injection, IVIS, n = 5 mice per group
Protocol: For spleen-to-liver metastasis model, 5 × 10^5 MC38-luc cells or MC38-luc (pLV-Grem1) cells were resuspended in 50 µL of PBS and injected into the spleen of GD mice or control mice (Grem1-CreER^T2/Rosa-LSL-DTA mice) (n = 5 mice in each group). 5 × 10^5 HCT116-luc cells carrying a pLV or pLV-GREM1 were resuspended in 50 µL of PBS and intrasplenically injected into NOG mice (n = 5 mice in each group). ACVR1C peptide was administered via tail vein injection at a dose of 10 mg/kg once every other day.

[4] = tested on: GREM1; details: monoclonal antibodies; cited from earlier work
Source text: The advent of cancer genomics and precision medicine has enabled targeted therapies for advanced CRC, with agents against VEGF, EGFR, BRAF V600E, and HER2 showing efficacy in selected patient subsets. However, issues like limited bioavailability, resistance, and narrow indications restrict their broader use. Unlike mutation-specific targets, GREM1 is a widely expressed cytokine with sustained, context-dependent activity, making it a promising and potentially broadly applicable therapeutic target in CRC. Therapeutic targeting of GREM1 to date has focused largely on full neutralization str ...

| Compound | affinity compared with ACVR1C-ECD [1] | blocking of GREM1–ACVR1C binding [2] | liver metastasis [3] | liver metastasis ([3]; listed as GREM1-blocking peptide) | efficacy in preclinical models [4] |
| --- | --- | --- | --- | --- | --- |
| CC[C@H](C)[C@H](NC(=O)[C@H](CC(N)=O)NC(=O)[C@H](CC(N)=O)NC(=O)[C@H](CS)NC(=O)[C@H](Cc1ccccc1)NC(=O)[C@H](CC(=O)O)NC(=O)[C@@H](NC(=O)[C@H](Cc1ccccc1)NC(=O)[C@H](CS)NC(=O)[C@H](CS)NC(=O)[C@H](CCC(=O)O)NC(=O)[C@@H](N)[C@@H](C)O)[C@@H](C)O)C(=O)N[C@H](C(=O)N[C@@H](CC(C)C)C(=O)N[C@@H](Cc1c[nH]cn1)C(=O)N[C@@H](CC(C)C)C(=O)N1CCC[C@H]1C(=O)N[C@H](C(=O)N[C@@H](C)C(=O)O)[C@@H](C)O)[C@@H](C)O [ACVR1C peptide] (H-TECCFTDFCNNITLHLPTA-OH; N-terminus and C-terminus assumed) | comparable to that for the ACVR1C-ECD | significantly blocked the GREM1–ACVR1C binding; also recorded: blocked the interaction between GREM1 and ACVR1C-ECD | effectively suppressed the increase in liver metastasis induced by tumor-specific GREM1 overexpression | significantly impairs CRC metastasis in vivo |  |
| Ginisortamab: fully humanized anti-GREM1 monoclonal antibody |  |  |  |  | have shown efficacy in preclinical models |
